Test systems include HCC-2998 colon; HL-60(TB) leukemia; NCI-H23 lung; UO-31 renal; NCI-H226 lung; SR leukemia; DU-145 prostate; HS 578T breast; MDA-MB-231 breast; PC-3 prostate.
What all share (assay): NCI-60 cell line screen, 48 h

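Each compound was tested at five concentrations against cells in 96-well plates for 48 hours. Abbreviation: GI50, concentration required for 50% inhibition of growth. Definition used: TGI = concentration required for complete inhibition of growth.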 Bounds are passed on as bounds.

With `CCOC(=O)c1cc(C(=O)O)c(=O)n2c1[nH]c1ccccc12`, the TGI in the assay on HCC-2998 colon is more than 100 µM; in the assay with HL-60(TB) leukemia it was more than 100 µM; with NCI-H23 lung it was more than 100 µM; with UO-31 renal it was 87.7 µM.
As for `O=c1/c(=C/c2ccc3c(c2)OCO3)sc2nnc(Cc3ccccc3)n12`, the TGI in the assay on HCC-2998 colon, in the assay on HL-60(TB) leukemia, with NCI-H226 lung, in the assay on NCI-H23 lung and in the assay with UO-31 renal was more than 100 µM in each case.
Take `c1cc2ccc1C1NCCCN1CCN1CCCNC1c1ccc(cc1)C1NCCCN1CCN1CCCNC21` (centres undefined): the figures for the TGI in the assay with HL-60(TB) leukemia, with NCI-H23 lung and in the assay on UO-31 renal were 67.8 µM, more than 100 µM and more than 100 µM, respectively.
With `CC12O[Te]34OC1(C)C(C)(O3)C2(C)O4`, the TGI in the assay on HCC-2998 colon amounted to 14.1 µM; in the assay with NCI-H226 lung it was 44.6 µM; in the assay with NCI-H23 lung, 34.8 µM; in the assay with SR leukemia, 34 µM; in the assay on UO-31 renal, 23.5 µM.
In the case of `CC[C@H](C)[C@H](NC(=O)N[C@@H](C)c1ccccc1)C(=O)N(C)[C@H](C[C@@H](OC(C)=O)c1nc(C(=O)N[C@@H](Cc2ccccc2)C[C@H](C)C(=O)OC)cs1)C(C)C`, the GI50 with DU-145 prostate is 32.8 µM; with HCC-2998 colon, 28.8 µM; in the assay on HS 578T breast it was 15.9 µM; in the assay on MDA-MB-231 breast, 20.7 µM; in the assay with NCI-H226 lung, 44.1 µM; with NCI-H23 lung, 28.2 µM. The values for the GI50 in the assay on PC-3 prostate and in the assay with UO-31 renal were 27.5 µM and 25.5 µM, respectively. For the same molecule, the TGI with DU-145 prostate is more than 100 µM; in the assay on HCC-2998 colon, more than 100 µM; with HS 578T breast it was 56.7 µM; in the assay on MDA-MB-231 breast it was 63.8 µM; in the assay on NCI-H226 lung, more than 100 µM; in the assay on NCI-H23 lung, more than 100 µM. In addition, the TGI in the assay on PC-3 prostate and with UO-31 renal was more than 100 µM each time.
With `C1=CC=C2NCCSCCNC3=CC=CC=CC3=NCCSCCN=C2C=C1`, the TGI in the assay with HCC-2998 colon, in the assay with HL-60(TB) leukemia, with NCI-H226 lung, in the assay with NCI-H23 lung and with UO-31 renal was more than 100 µM each time.
Regarding `N=C(N)SCC(=O)O`, the TGI with DU-145 prostate, with HCC-2998 colon, in the assay with HS 578T breast, with MDA-MB-231 breast, in the assay on NCI-H226 lung and in the assay with NCI-H23 lung was more than 100 µM in each case. In addition, the TGI in the assay with PC-3 prostate and with UO-31 renal was more than 100 µM throughout.
As for `COC(=O)Cc1cc(=O)oc2c1C(=O)CCC2`, the TGI in the assay on HCC-2998 colon, in the assay on HL-60(TB) leukemia, in the assay with NCI-H226 lung, in the assay with NCI-H23 lung and in the assay on UO-31 renal was more than 100 µM each time.
Regarding `O=C1OC(c2ccc(Cl)c3ccccc23)c2ccccc21` (centres undefined), the TGI in the assay with HCC-2998 colon, in the assay with HL-60(TB) leukemia, in the assay on NCI-H23 lung, with SR leukemia and in the assay with UO-31 renal was more than 100 µM each time.
For `COc1cc2c3c(c1OC)/C(=N/OS(=O)(=O)c1ccc(C)cc1)CC3N(S(=O)(=O)c1ccc(C)cc1)CC2` (centres undefined), the TGI in the assay on HCC-2998 colon, in the assay on HL-60(TB) leukemia, with NCI-H226 lung, in the assay on NCI-H23 lung and in the assay on UO-31 renal was more than 100 µM in each case.
As for `CN1C(=O)CC2(C)c3cc(C=O)ccc3N(C)C12` (centres undefined), the TGI in the assay with HCC-2998 colon, in the assay with NCI-H226 lung, with NCI-H23 lung and in the assay with UO-31 renal was more than 100 µM in each case.
In the case of `CN1C=C(C(N)=O)C2CC(O)[C@@](NC(=O)CS(N)(=O)=O)(C(=O)O)C2C1` (some centres undefined), the TGI with HCC-2998 colon is 34 µM; with HL-60(TB) leukemia, more than 100 µM; in the assay with NCI-H226 lung, 8.52 µM; with NCI-H23 lung it was 3.48 µM; in the assay with SR leukemia, 15.7 µM; in the assay on UO-31 renal, 14.1 µM.
As for `CCOc1ccccc1NC(=O)CCC(=O)NN`, the TGI in the assay with HCC-2998 colon is more than 100 µM; with HL-60(TB) leukemia, more than 100 µM; in the assay with NCI-H226 lung, more than 100 µM; in the assay on NCI-H23 lung, more than 100 µM; in the assay on SR leukemia, 70.1 µM; in the assay on UO-31 renal, more than 100 µM.
Take `N#CC1=C(N)NC(=S)C(C#N)C12Nc1ccccc1S2` (centres undefined): the GI50 in the assay on HL-60(TB) leukemia is 35.1 µM; in the assay with MDA-MB-231 breast, 11 µM; in the assay on NCI-H23 lung, 13.4 µM; in the assay with PC-3 prostate, 41 µM; with SR leukemia, 78.9 µM; in the assay on UO-31 renal it was 17.6 µM. Moreover, the TGI with HL-60(TB) leukemia was more than 100 µM; with MDA-MB-231 breast, 32.9 µM; with NCI-H23 lung, 33.2 µM; in the assay on PC-3 prostate it was more than 100 µM; in the assay on SR leukemia it was more than 100 µM; in the assay on UO-31 renal, 38.5 µM.
For the molecule `Nn1nnc2ccccc21`, the TGI with DU-145 prostate, with HCC-2998 colon, in the assay on HL-60(TB) leukemia, with MDA-MB-231 breast, in the assay with NCI-H226 lung and in the assay on NCI-H23 lung was more than 100 µM in each case. For the same molecule, the TGI in the assay with PC-3 prostate, with SR leukemia and in the assay on UO-31 renal was more than 100 µM each time.
`O=C(/C(=N/Nc1cn[nH]c(=O)c1Cl)c1ccccc1)c1ccccc1`: the TGI in the assay on DU-145 prostate was 54.3 µM; with HCC-2998 colon, 76.7 µM; in the assay with HL-60(TB) leukemia it was more than 100 µM; with MDA-MB-231 breast it was 87.3 µM; in the assay on NCI-H226 lung, more than 100 µM; in the assay with NCI-H23 lung, 66.6 µM. Further, the TGI in the assay on PC-3 prostate and in the assay on UO-31 renal was more than 100 µM in each case.
Regarding `NC(=O)c1ncn(C2OC(CO)C(O)C2O)c1NC(=S)NC(=O)c1ccccc1` (centres undefined), the TGI in the assay with HCC-2998 colon, in the assay with HL-60(TB) leukemia, in the assay with NCI-H226 lung, in the assay with NCI-H23 lung, with SR leukemia and with UO-31 renal was more than 100 µM each time.
Regarding `O=c1ncccn1C1OC(CO)C(O)C1F` (centres undefined), the TGI with HCC-2998 colon, in the assay with HL-60(TB) leukemia, in the assay on NCI-H226 lung, in the assay on NCI-H23 lung, in the assay with SR leukemia and in the assay on UO-31 renal was more than 100 µM each time. The GI50 in the assay on UO-31 renal is more than 100 µM.
